This passage reports IC50 results from patent US8088930B2, “Benzimidazole derivatives” (Hoffmann-La Roche Inc., priority 2008, dated 2012).

pIC50: −log10 of the molar value.

The first test has as its target T1, FXR ligand binding domain (GST-FXR LBD fusion protein, human FXR aa 193-473) (Homo sapiens, UniProt Q96RI1).
T1 construct: fused on or other part: Glutathione-S-transferase (GST) fused N-terminally to the FXR LBD, used to capture the protein on glutathione SPA beads
T1 sequence (Q96RI1 211-486 limits assumed): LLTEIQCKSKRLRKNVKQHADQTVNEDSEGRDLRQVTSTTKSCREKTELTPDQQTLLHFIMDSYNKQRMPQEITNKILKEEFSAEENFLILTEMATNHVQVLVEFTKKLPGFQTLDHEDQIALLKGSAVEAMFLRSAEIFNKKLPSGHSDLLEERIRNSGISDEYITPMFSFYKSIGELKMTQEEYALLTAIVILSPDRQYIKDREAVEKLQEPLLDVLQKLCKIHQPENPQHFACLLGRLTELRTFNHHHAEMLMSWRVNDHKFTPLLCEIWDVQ
Briefly: Radioligand binding assay (scintillation proximity, radioligand displacement). As to conditions: 40 nM GST-FXR LBD on SPA beads, test compound 6×10^−9 M to 2.5×10^−5 M, read-out: h-IC50 Binding. The procedure:
The following tests were carried out in order to determine the activity of the compounds of formula (I).
To accomplish this, the portions of the sequences encoding the FXR LBD were amplified by polymerase chain reaction (PCR) from a full-length clone by PCR and then subcloned into the plasmid vectors. The final clone was verified by DNA sequence analysis.
The induction, expression, and subsequent purification of GST-LBD fusion protein was performed in E. coli strain BL21(pLysS) cells by standard methods (Current Protocols in Molecular Biology, Wiley Press, ed. Ausubel et al.).
Radioligand Binding Assay
Binding of test substances to the FXR ligand binding domain was assessed in a radioligand displacement assay. The assay was performed in a buffer consisting of 50 mM Hepes, pH 7.4, 10 mM NaCl, 5 mM MgCl2, 0.01% CHAPS. For each reaction well in a 96-well plate, 40 nM of GST-FXR LBD fusion protein was bound to 10 μg glutathione yttrium silicate SPA beads (Pharmacia Amersham) in a final volume of 50 μl by shaking. A radioligand (e.g., 20 nM of 2,N-dicyclohexyl-2-[2-(2,4 dimethoxy-phenyl)-benzoimidazol-1-yl]-acetamide) and test compounds were added, and scintillation proximity counting was performed. All binding assays were performed in 96-well plates and the amount of bound ligand was measured on a Packard TopCount using OptiPlates (Packard).
In general terms: In a scintillation proximity assay essentially only radioactivity close to the scintillant gives light.
For orientation: pIC50 means −log10 of the IC50, conventionally taken in molar units. As for `CC(C)(Oc1c(F)cc(-c2nnn[nH]2)cc1F)C(C1CCCCC1)n1c(-c2ccc(Cl)cc2)nc2cc(F)c(F)cc21` (single isomer, unassigned) [Example 115, (+) or (−)-2-(4-Chloro-phenyl)-1-[1-cyclohexyl-2-[2,6-difluoro-4-(1H-tetrazol-5-yl)-phenoxy]-2-methyl-propyl]-5,6-difluoro-1H-benzoimidazole], the negative-log IC50 (pIC50) was 8.70.

For the compound `O=C(O)C1CCC(NCC(C2CCCCC2)n2c(-c3ccc(Cl)cc3)nc3cc(F)c(F)cc32)CC1` (single isomer, unassigned) [Example 137, (+) or (−)-4-{2-[2-(4-Chloro-phenyl)-5,6-difluoro-benzoimidazol-1-yl]-(2-cis-cyclohexyl-ethylamino}-cyclohexanecarboxylic acid], the pIC50 was 5.21.

Turning to `O=C(O)C1CCC(NCC(C2CCCCC2)n2c(-c3ccc(Cl)cc3)nc3cc(F)c(F)cc32)CC1` (single isomer, unassigned) [Example 138, (+) or (−)-4-{2-[2-(4-Chloro-phenyl)-5,6-difluoro-benzoimidazol-1-yl]-(2-trans-cyclohexyl-ethylamino}-cyclohexanecarboxylic acid], the pIC50 was 6.52.

For `O=C(O)c1ccc(OCC(C2CCCCC2)n2c(-c3ccc(Cl)cc3)nc3cc(F)c(F)cc32)c(F)c1` (single isomer, unassigned; (+)) [Example 9, (+)-4-{2-[2-(4-Chloro-phenyl)-5,6-difluoro-benzoimidazol-1-yl]-2-cyclohexyl-ethoxy}-3-fluoro-benzoic acid], the negative logarithm of the IC50 (pIC50) is 7.00.

Consider `Cc1cc(C(=O)O)ccc1OCC(C1CCCCC1)n1c(-c2ccc(Cl)cc2)nc2cc(F)c(F)cc21` (single isomer, unassigned; (+)) [Example 13, (+)-4-{2-[2-(4-Chloro-phenyl)-5,6-difluoro-benzoimidazol-1-yl]-2-cyclohexyl-ethoxy}-3-methyl-benzoic acid], for which the pIC50 is 7.00.

In the case of `O=C(O)c1ccc(OCC(C2CCCCC2)n2c(-c3ccc(Cl)cc3)nc3cc(F)c(F)cc32)nc1` (single isomer, unassigned; (+)) [Example 20, (+)-6-{2-[2-(4-Chloro-phenyl)-5,6-difluoro-benzoimidazol-1-yl]-2-cyclohexyl-ethoxy}-nicotinic acid], the pIC50 was 7.52.

For `O=C(O)c1cnc(OCC(C2CCCCC2)n2c(-c3ccc(Cl)cc3)nc3cc(F)c(F)cc32)c(Cl)c1` (single isomer, unassigned; (+)) [Example 23, (+)-5-Chloro-6-{2-[2-(4-chloro-phenyl)-5,6-difluoro-benzoimidazol-1-yl]-2-cyclohexyl-ethoxy}-nicotinic acid], the pIC50 is 7.70.

`O=C(O)c1cnc(OCC(C2CCCCC2)n2c(-c3ccc(Cl)cc3)nc3cc(F)c(F)cc32)c2ccsc12` (single isomer, unassigned; (+)) [Example 27, (+)-4-{2-[2-(4-Chloro-phenyl)-5,6-difluoro-benzoimidazol-1-yl]-2-cyclohexyl-ethoxy}-thieno[3,2-c]pyridine-7-carboxylic acid]: the pIC50 was 6.52.

For the compound `O=C(O)c1ccc(OCC(C2CCCCC2)n2c(-c3ccc(Cl)cc3)nc3cc(F)c(F)cc32)c(C(F)(F)F)c1` (single isomer, unassigned; (+)) [Example 40, (+)-4-{2-[2-(4-Chloro-phenyl)-5,6-difluoro-benzoimidazol-1-yl]-2-cyclohexyl-ethoxy}-3-trifluoromethyl-benzoic acid], the pIC50 was 7.00.

In the case of `O=C(O)c1c(F)cc(OCC(C2CCCCC2)n2c(-c3ccc(Cl)cc3)nc3cc(F)c(F)cc32)cc1F` (single isomer, unassigned; (+)) [Example 43, (+)-4-{2-[2-(4-Chloro-phenyl)-5,6-difluoro-benzoimidazol-1-yl]-2-cyclohexyl-ethoxy}-2,6-difluoro-benzoic acid], the pIC50 was 6.15.

For `CC(C)(Oc1ccc(OCC(C2CCCCC2)n2c(-c3ccc(Cl)cc3)nc3cc(F)c(F)cc32)nc1)C(=O)O` (single isomer, unassigned; (+)) [Example 48, (+)-2-(6-{2-[2-(4-Chloro-phenyl)-5,6-difluoro-benzoimidazol-1-yl]-2-cyclohexyl-ethoxy}-pyridin-3-yloxy)-2-methyl-propionic acid], the pIC50 is 6.30.

Consider `O=C(O)C1(Oc2ccc(OCC(C3CCCCC3)n3c(-c4ccc(Cl)cc4)nc4cc(F)c(F)cc43)nc2)CC1` (single isomer, unassigned; (+)) [Example 52, (+)-1-(6-{2-[2-(4-Chloro-phenyl)-5,6-difluoro-benzoimidazol-1-yl]-2-cyclohexyl-ethoxy}-pyridin-3-yloxy)-cyclopropanecarboxylic acid], for which the pIC50 is 7.10.

`Cc1cc(C(=O)O)cc(C)c1OCC(C1CCCCC1)n1c(-c2ccc(Cl)cc2)nc2cc(F)c(F)cc21` (single isomer, unassigned; (+)) [Example 54, (+)-4-{2-[2-(4-Chloro-phenyl)-5,6-difluoro-benzoimidazol-1-yl]-2-cyclohexyl-ethoxy}-3,5-dimethyl-benzoic acid]: the pIC50 is 7.00.

Turning to `Fc1cc2nc(-c3ccc(Cl)cc3)n(C(COc3ccc(-c4nnn[nH]4)cn3)C3CCCCC3)c2cc1F` (single isomer, unassigned; (+)) [Example 62, (+)-2-(4-Chloro-phenyl)-1-{1-cyclohexyl-2-[5-(1H-tetrazol-5-yl)-pyridin-2-yloxy]-ethyl}-5,6-difluoro-1H-benzoimidazole], the pIC50 was 6.70.

As for `O=C(O)c1ccc(COCC(C2CCCCC2)n2c(-c3ccc(Cl)cc3)nc3cc(F)c(F)cc32)c(F)c1` (single isomer, unassigned; (+)) [Example 64, (+)-4-{2-[2-(4-Chloro-phenyl)-5,6-difluoro-benzoimidazol-yl]-2-cyclohexyl-ethoxymethyl}-3-fluoro-benzoic], the pIC50 is 6.52.

For `O=C(O)c1ccc(COCC(C2CCCCC2)n2c(-c3ccc(Cl)cc3)nc3cc(F)c(F)cc32)cc1` (single isomer, unassigned; (+)) [Example 69, (+)-4-{2-[2-(4-Chloro-phenyl)-5,6-difluoro-benzoimidazol-1-yl]-2-cyclohexyl-ethoxymethyl}-benzoic acid], the pIC50 is 6.15.

In the case of `Cc1cc(-c2nnn[nH]2)cc(C)c1OCC(C1CCCCC1)n1c(-c2ccc(Cl)cc2)nc2cc(F)c(F)cc21` (single isomer, unassigned; (+)) [Example 72, (+)-2-(4-Chloro-phenyl)-1-{1-cyclohexyl-2-[2,6-dimethyl-4-(1H-tetrazol-5-yl)-phenoxy]-ethyl}-5,6-difluoro-1H-benzoimidazole], the pIC50 is 9.00.

`COc1ccc(-c2nc3cc(F)c(F)cc3n2C(COc2ccc(C(=O)O)cn2)C2CCCCC2)c(OC)n1` (single isomer, unassigned; (+)) [Example 74, (+)-6-{2-Cyclohexyl-2-[2-(2,6-dimethoxy-pyridin-3-yl)-5,6-difluoro-benzoimidazol-1-yl]-ethoxy}-nicotinic acid]: the pIC50 is 6.30.

On to `O=C(O)c1cc(F)c(OCC(C2CCCCC2)n2c(-c3ccc(Cl)cc3)nc3cc(F)c(F)cc32)c(Cl)c1` (single isomer, unassigned; (+)) [Example 78, (+)-3-Chloro-4-{2-[2-(4-chloro-phenyl)-5,6-difluoro-benzoimidazol-1-yl]-2-cyclohexyl-ethoxy}-5-fluoro-benzoic acid], for which the pIC50 is 7.52.

On to `Fc1cc2nc(-c3ccc(Cl)cc3)n(C(COc3ccc(-c4nnn[nH]4)cc3F)C3CCCCC3)c2cc1F` (single isomer, unassigned; (+)) [Example 80, (+)-2-(4-Chloro-phenyl)-1-{1-cyclohexyl-2-[2-fluoro-4-(1H-tetrazol-5-yl)-phenoxy]-ethyl}-5,6-difluoro-1H-benzoimidazole], for which the pIC50 was 7.30.

With `COc1ccc(-c2nc3cc(F)c(F)cc3n2C(COc2c(C)cc(C(=O)O)cc2C)C2CCCCC2)c(OC)n1` (single isomer, unassigned; (+)) [Example 83, (+)-4-{2-Cyclohexyl-2-[2-(2,6-dimethoxy-pyridin-3-yl)-5,6-difluoro-benzoimidazol-1-yl]-ethoxy}-3,5-dimethyl-benzoic acid], the pIC50 was 9.70.

The same test, now with this note: h-IC50 Binding, 40 nM GST-FXR LBD on SPA beads, test compound 6×10^−9 M to 2.5×10^−5 M.
Take `O=C(O)c1ccc(OCC(C2CCCCC2)n2c(-c3ccc(Cl)cc3)nc3cc(F)c(F)cc32)cc1` (single isomer, unassigned; (+)) [Example 5, (+)-4-{2-[2-(4-Chloro-phenyl)-5,6-difluoro-benzoimidazol-1-yl]-2-cyclohexyl-ethoxy}-benzoic acid]: the pIC50 was 7.40.
